From patent publication US10752609B2, “GSK-3 inhibitors” (priority 2016, dated 2020) come the findings set out here.

Read-outs that look alike come from different tables or passages of the source.

Experiment [1] deals with GSK3β (Homo sapiens, UniProt P49841). The experiment is described as follows: GSK3β kinase assay (Caliper LabChip3000 mobility shift, fluoresceinated peptide substrate). Type of experiment: biochemical.
Method: (§1) The kinase assay was performed in V-bottom 384-well plates. […] The reaction was incubated at room temperature for 20 hours and terminated by adding 45 μl of 35 mM EDTA to each sample. The reaction mixture was analyzed on the Caliper LabChip3000 (Caliper, Hopkinton, Mass.) by electrophoretic separation of the unphosphorylated substrate and phosphorylated product. […] Compounds were dissolved at 10 mM in dimethylsulfoxide (DMSO) and evaluated at eleven concentrations. IC50 values were derived by non-linear regression analysis.
For experiment [2], the system named is pTau. The experiment is described as follows: pTau assay (no method described). Type of experiment: cell-based.
Experiment [3] addresses GSK3α (Homo sapiens, UniProt P49840). In words: GSK3α kinase assay (Caliper LabChip3000 mobility shift, fluoresceinated peptide substrate).
Method: as §1
Where [4] appears, read: 250 pM enzyme, 20 uM ATP, 1.5 uM peptide, 20 hours room temperature, first value of cell GSK3β/GSK3α, read-out: GSK3β (nM), IC50.

Chain of GSK3β (P49841 whole entry, species assumed): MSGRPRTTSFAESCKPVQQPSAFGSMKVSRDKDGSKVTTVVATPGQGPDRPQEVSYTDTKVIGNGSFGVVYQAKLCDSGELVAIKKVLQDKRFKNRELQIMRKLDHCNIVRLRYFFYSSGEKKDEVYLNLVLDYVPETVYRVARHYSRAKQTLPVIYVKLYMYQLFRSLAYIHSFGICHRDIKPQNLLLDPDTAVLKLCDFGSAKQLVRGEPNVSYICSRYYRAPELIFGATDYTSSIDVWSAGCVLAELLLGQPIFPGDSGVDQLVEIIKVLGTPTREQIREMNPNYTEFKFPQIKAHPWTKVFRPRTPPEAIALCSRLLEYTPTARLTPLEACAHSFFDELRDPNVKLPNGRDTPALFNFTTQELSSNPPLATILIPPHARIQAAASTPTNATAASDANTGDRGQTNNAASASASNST
Chain of GSK3α (P49840 whole entry, species assumed): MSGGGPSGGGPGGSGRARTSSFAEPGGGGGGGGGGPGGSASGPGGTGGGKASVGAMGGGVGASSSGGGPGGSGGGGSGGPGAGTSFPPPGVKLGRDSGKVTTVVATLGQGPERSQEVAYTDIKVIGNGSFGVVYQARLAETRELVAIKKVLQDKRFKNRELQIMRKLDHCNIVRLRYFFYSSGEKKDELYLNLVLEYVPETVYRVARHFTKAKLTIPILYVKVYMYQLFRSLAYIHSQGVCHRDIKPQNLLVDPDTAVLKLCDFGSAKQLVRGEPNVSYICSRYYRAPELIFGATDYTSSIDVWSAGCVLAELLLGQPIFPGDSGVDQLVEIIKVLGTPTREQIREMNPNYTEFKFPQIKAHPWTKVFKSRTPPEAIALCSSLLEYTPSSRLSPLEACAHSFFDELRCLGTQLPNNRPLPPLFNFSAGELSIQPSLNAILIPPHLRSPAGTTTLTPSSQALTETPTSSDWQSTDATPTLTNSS

Consider `N#Cc1ccc(Nc2nccc(C(=O)Nc3cnccc3OCC(F)(F)F)n2)cn1` [Example 82, 2-((6-Cyanopyridin-3-yl)amino)-N-(4-(2,2,2-trifluoroethoxy)pyridin-3-yl)pyrimidine-4-carboxamide], for which the IC50 in experiment [1] (setting [4]) turned out to be 0.18 nM; in experiment [2], 2.8 nM; in experiment [3], 0.09 nM.
Regarding `Cc1ccc(Nc2nccc(C(=O)Nc3cnccc3OCC(F)(F)F)n2)cn1` [Example 83, 2-((6-Methylpyridin-3-yl)amino)-N-(4-(2,2,2-trifluoroethoxy)pyridin-3-yl)pyrimidine-4-carboxamide], the IC50 in experiment [1] (setting [4]) turned out to be 0.22 nM; in experiment [2] it was 5.1 nM; in experiment [3], 0.16 nM.
For `O=C(Nc1cnccc1OCC(F)(F)F)c1ccnc(Nc2ccc(F)nc2)n1` [Example 84, 2-((6-Fluoropyridin-3-yl)amino)-N-(4-(2,2,2-trifluoroethoxy)pyridin-3-yl)pyrimidine-4-carboxamide] the same measures were 0.24 nM, 4.8 nM and 0.11 nM.
Take `O=C(Nc1cnccc1OCC(F)(F)F)c1ccnc(NC2CCCOC2)n1` (stereo not drawn) [Example 85, 2-((Tetrahydro-2H-pyran-3-yl)amino)-N-(4-(2,2,2-trifluoroethoxy)pyridin-3-yl)pyrimidine-4-carboxamide]: the results for the IC50 in experiment [1] (setting [4]), in experiment [2] and in experiment [3] were 0.51 nM, 17 nM and 0.41 nM, respectively.
On to `O=C(Nc1cnccc1-c1ccccc1)c1ccnc(Nc2ccc(F)nc2)n1` [Example 86, 2-((6-Fluoropyridin-3-yl)amino)-N-(4-phenylpyridin-3-yl)pyrimidine-4-carboxamide], for which the IC50 in experiment [1] (setting [4]) was 0.8 nM; in experiment [2], 68 nM; in experiment [3], 0.4 nM.
Taken in the same sequence, the figures for `CC(=O)Nc1ccc(Nc2nccc(C(=O)Nc3cnccc3-c3ccccc3)n2)cn1` [Example 87, 2-((6-Acetamidopyridin-3-yl)amino)-N-(4-phenylpyridin-3-yl)pyrimidine-4-carboxamide] were 1.4 nM, 150 nM and 0.92 nM.
Consider `O=C(Nc1cnccc1-c1ccccc1)c1ccnc(NC2CCOCC2)n1` [Example 88, N-(4-Phenylpyridin-3-yl)-2-((tetrahydro-2H-pyran-4-yl)amino)pyrimidine-4-carboxamide], for which the half-inhibitory concentration (IC50) in experiment [1] (setting [4]) turned out to be 2.6 nM; in experiment [2] it was 150 nM; in experiment [3] it was 1.4 nM.
As for `Cc1ccc(Nc2nccc(C(=O)Nc3cnccc3-c3ccccc3)n2)cn1` [Example 89, 2-((6-Methylpyridin-3-yl)amino)-N-(4-phenylpyridin-3-yl)pyrimidine-4-carboxamide], the IC50 is 3 nM in experiment [1] (setting [4]), 73 nM in experiment [2] and 1.5 nM in experiment [3].
For the compound `CCn1nccc1Nc1nccc(C(=O)Nc2cnccc2-c2ccccc2)n1` [Example 90, 2-((1-Ethyl-1H-pyrazol-5-yl)amino)-N-(4-phenylpyridin-3-yl)pyrimidine-4-carboxamide], the IC50 in experiment [1] came to 3 nM; in experiment [2] it was 120 nM; in experiment [3], 2.2 nM.
In the case of `O=C(Nc1cnccc1-c1ccccc1)c1ccnc(Nc2cncc3c2CCCC3)n1` [Example 91, N-(4-Phenylpyridin-3-yl)-2-((5,6,7,8-tetrahydroisoquinolin-4-yl)amino)pyrimidine-4-carboxamide], the IC50 in experiment [1] (setting [4]) was determined as 3.5 nM; in experiment [2] it was 270 nM; in experiment [3] it was 2.3 nM.
As to `CCO[C@H]1COC[C@@H]1Nc1nccc(C(=O)Nc2cnccc2-c2ccccc2)n1` [Example 92, 2-(((3S,4R)-4-Ethoxytetrahydrofuran-3-yl)amino)-N-(4-phenylpyridin-3-yl)pyrimidine-4-carboxamide], the IC50 in experiment [1] (setting [4]) amounted to 3.8 nM; in experiment [2], 250 nM; in experiment [3], 2.2 nM.
In the case of `CN(C)c1ccc(Nc2nccc(C(=O)Nc3cnccc3-c3ccccc3)n2)cn1` [Example 93, 2-((6-(Dimethylamino)pyridin-3-yl)amino)-N-(4-phenylpyridin-3-yl)pyrimidine-4-carboxamide], the IC50 is 4.3 nM in experiment [1] (setting [4]), 390 nM in experiment [2] and 3.1 nM in experiment [3].
